Tests used:
[1] = system: human lung cancer strain NCI-H441; test: cells; conditions: NCI-H441, 96 h, read-out: NCI-H441 IC50 (nM), NCI-H441 cell proliferation, 4 days, CellTiter-Glo;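 note: cell proliferation inhibition after four days measured by CellTiter-Glo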
[2] = biological target: GDP-bound KRAS wild-type protein (Homo sapiens, UniProt P01116); test: Binding to KRAS by surface plasmon resonance (SPR), Single Cycle Kinetics; conditions: SPR, Single Cycle Kinetics, GDP-bound KRAS wild-type protein; read-out: KRAS KD
Sequence of GDP-bound KRAS wild-type protein (P01116 whole entry): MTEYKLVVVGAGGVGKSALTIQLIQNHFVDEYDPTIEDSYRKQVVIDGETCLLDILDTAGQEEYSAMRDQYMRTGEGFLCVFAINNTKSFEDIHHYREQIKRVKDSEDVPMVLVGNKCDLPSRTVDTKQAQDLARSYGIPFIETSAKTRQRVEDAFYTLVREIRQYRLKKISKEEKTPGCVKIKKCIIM

[3] = biological target: GDP-bound NRAS wild-type protein (Homo sapiens, UniProt P01111); test: Binding to NRAS by surface plasmon resonance (SPR), Single Cycle Kinetics; conditions: ratio of KD for GDP-bound NRAS wild-type protein to KD for KRAS, SPR
Sequence of GDP-bound NRAS wild-type protein (P01111 whole entry): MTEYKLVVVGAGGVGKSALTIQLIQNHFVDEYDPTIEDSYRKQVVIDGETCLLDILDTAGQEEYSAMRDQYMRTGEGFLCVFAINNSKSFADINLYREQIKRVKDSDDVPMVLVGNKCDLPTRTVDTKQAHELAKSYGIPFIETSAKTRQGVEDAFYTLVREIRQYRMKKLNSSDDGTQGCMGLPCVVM

[4] = biological target: GDP-bound HRAS wild-type protein (Homo sapiens, UniProt P01112); test: Binding to HRAS by surface plasmon resonance (SPR), Single Cycle Kinetics; conditions: ratio of KD for GDP-bound HRAS wild-type protein to KD for KRAS, SPR
Sequence of GDP-bound HRAS wild-type protein (P01112 whole entry): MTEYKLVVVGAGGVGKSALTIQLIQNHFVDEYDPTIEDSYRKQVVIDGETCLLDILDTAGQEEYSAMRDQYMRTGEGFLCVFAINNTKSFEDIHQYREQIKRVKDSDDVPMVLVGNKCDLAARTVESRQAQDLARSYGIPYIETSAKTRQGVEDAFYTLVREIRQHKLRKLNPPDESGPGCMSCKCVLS

| IC50 [1] | Kd [2] | Compound | NRAS/KRAS (KD ratio) [3] | HRAS/KRAS (KD ratio) [4] |
| --- | --- | --- | --- | --- |
| 1.6 nM | 0.051 nM | CCO[C@@H]1C[C@H]2C(=O)NC3(CC(F)(F)C3)C(=O)N(C)[C@@H](C3CCCC3)C(=O)N(C)[C@H](C(=O)N(C)C)CC(=O)N(C)[C@@H](CC3CCC3)C(=O)N[C@@H]([C@@H](C)CC)C(=O)N(C)CC(=O)N(C)[C@H]3C/C=C\CCN(C3=O)[C@@H](Cc3ccc(C(F)(F)F)cc3)C(=O)N(C)CC(=O)N[C@@H](CCc3cc(F)c(C(F)(F)F)c(F)c3)C(=O)N2C1 [PP1742] | A (a compound having 10 or more and less than 20 is denoted as A) | A (a compound having 10 or more and less than 20 is denoted as A) |
| 5.1 nM | 0.076 nM | CCCN(C)C(=O)[C@@H]1CC(=O)N(C)[C@@H](COC)C(=O)N[C@@H]([C@@H](C)CC)C(=O)N(C)CC(=O)N(C)[C@H]2C/C=C\CCN(C2=O)[C@@H](Cc2ccc(C(F)(F)F)cc2)C(=O)N(C)CC(=O)N[C@@H](CCc2cc(F)c(C(F)(F)F)c(F)c2)C(=O)N2C[C@H](OCC)C[C@H]2C(=O)NC2(CC(F)(F)C2)C(=O)N(C)[C@@H](C2CCCC2)C(=O)N1C [PP1743] | AA (a compound having 20 or more is denoted as AA) | A (a compound having 10 or more and less than 20 is denoted as A) |
| 5.3 nM | 0.13 nM | CCCOC[C@H]1C(=O)N[C@@H]([C@@H](C)CC)C(=O)N(C)CC(=O)N(C)[C@H]2C/C=C\CCN(C2=O)[C@@H](Cc2ccc(C(F)(F)F)cc2)C(=O)N(C)CC(=O)N[C@@H](CCc2cc(F)c(C(F)(F)F)c(F)c2)C(=O)N2C[C@H](OCC)C[C@H]2C(=O)NC2(CC(F)(F)C2)C(=O)N(C)[C@@H](C2CCCC2)C(=O)N(C)[C@H](C(=O)N(C)CCC)CC(=O)N1C [PP1744] | A (a compound having 10 or more and less than 20 is denoted as A) | A (a compound having 10 or more and less than 20 is denoted as A) |
| 1.9 nM | 0.054 nM | CCO[C@@H]1C[C@H]2C(=O)NC3(CC(C)(C)C3)C(=O)N(C)[C@@H](C3CCCC3)C(=O)N(C)[C@H](C(=O)N(C)C)CC(=O)N(C)[C@@H](CC)C(=O)N[C@@H]([C@@H](C)CC)C(=O)N(C)CC(=O)N(C)[C@H]3C/C=C\CCN(C3=O)[C@@H](Cc3ccc(C(F)(F)F)cc3)C(=O)N(C)CC(=O)N[C@@H](CCc3ccc(C(F)(F)F)c(Cl)c3)C(=O)N2C1 [PP1746] | A (a compound having 10 or more and less than 20 is denoted as A) | A (a compound having 10 or more and less than 20 is denoted as A) |
| 2.3 nM | 0.058 nM | CCO[C@@H]1C[C@H]2C(=O)NC3(CC(C)(C)C3)C(=O)N(C)[C@@H](C3CCCC3)C(=O)N(C)[C@H](C(=O)N(C)C)CC(=O)N(C)[C@@H](CC(F)F)C(=O)N[C@@H]([C@@H](C)CC)C(=O)N(C)CC(=O)N(C)[C@H]3C/C=C\CCN(C3=O)[C@@H](Cc3ccc(C(F)(F)F)cc3)C(=O)N(C)CC(=O)N[C@@H](CCc3ccc(C(F)(F)F)c(Cl)c3)C(=O)N2C1 [PP1747] | A (a compound having 10 or more and less than 20 is denoted as A) | A (a compound having 10 or more and less than 20 is denoted as A) |
| 3.1 nM | 0.062 nM | CCC[C@H]1C(=O)N[C@@H]([C@@H](C)CC)C(=O)N(C)CC(=O)N(C)[C@H]2C/C=C\CCN(C2=O)[C@@H](Cc2ccc(C(F)(F)F)cc2)C(=O)N(C)CC(=O)N[C@@H](CCc2ccc(C(F)(F)F)c(Cl)c2)C(=O)N2C[C@H](OCC)C[C@H]2C(=O)NC2(CC(C)(C)C2)C(=O)N(C)[C@@H](C2CCCC2)C(=O)N(C)[C@H](C(=O)N(C)C)CC(=O)N1C [PP1748] | A (a compound having 10 or more and less than 20 is denoted as A) | B (a compound having 3 or more and less than 10 is denoted as B) |
| 3.3 nM | 0.039 nM | CCO[C@@H]1C[C@H]2C(=O)NC3(CC(C)(C)C3)C(=O)N(C)[C@@H](C3CCCC3)C(=O)N(C)[C@H](C(=O)N(C)C)CC(=O)N(C)[C@@H](CC3CC3)C(=O)N[C@@H]([C@@H](C)CC)C(=O)N(C)CC(=O)N(C)[C@H]3C/C=C\CCN(C3=O)[C@@H](Cc3ccc(C(F)(F)F)cc3)C(=O)N(C)CC(=O)N[C@@H](CCc3ccc(C(F)(F)F)c(Cl)c3)C(=O)N2C1 [PP1749] | A (a compound having 10 or more and less than 20 is denoted as A) | A (a compound having 10 or more and less than 20 is denoted as A) |
| 3.4 nM | 0.069 nM | CCCC[C@H]1C(=O)N[C@@H]([C@@H](C)CC)C(=O)N(C)CC(=O)N(C)[C@H]2C/C=C\CCN(C2=O)[C@@H](Cc2ccc(C(F)(F)F)cc2)C(=O)N(C)CC(=O)N[C@@H](CCc2ccc(C(F)(F)F)c(Cl)c2)C(=O)N2C[C@H](OCC)C[C@H]2C(=O)NC2(CC(C)(C)C2)C(=O)N(C)[C@@H](C2CCCC2)C(=O)N(C)[C@H](C(=O)N(C)C)CC(=O)N1C [PP1750] | A (a compound having 10 or more and less than 20 is denoted as A) | B (a compound having 3 or more and less than 10 is denoted as B) |
| 2.2 nM | 0.047 nM | CCO[C@@H]1C[C@H]2C(=O)NC3(CC(C)(C)C3)C(=O)N(C)[C@@H](C3CCCC3)C(=O)N(C)[C@H](C(=O)N(C)C)CC(=O)N(C)[C@@H](CC(C)C)C(=O)N[C@@H]([C@@H](C)CC)C(=O)N(C)CC(=O)N(C)[C@H]3C/C=C\CCN(C3=O)[C@@H](Cc3ccc(C(F)(F)F)cc3)C(=O)N(C)CC(=O)N[C@@H](CCc3ccc(C(F)(F)F)c(Cl)c3)C(=O)N2C1 [PP1751] | A (a compound having 10 or more and less than 20 is denoted as A) | A (a compound having 10 or more and less than 20 is denoted as A) |
| 5.8 nM | 0.085 nM | CCO[C@@H]1C[C@H]2C(=O)NC3(CC(C)(C)C3)C(=O)N(C)[C@@H](C3CCCC3)C(=O)N(C)[C@H](C(=O)N(C)C)CC(=O)N(C)[C@@H](CC3CCC3)C(=O)N[C@@H]([C@@H](C)CC)C(=O)N(C)CC(=O)N(C)[C@H]3C/C=C\CCN(C3=O)[C@@H](Cc3ccc(C(F)(F)F)cc3)C(=O)N(C)CC(=O)N[C@@H](CCc3ccc(C(F)(F)F)c(Cl)c3)C(=O)N2C1 [PP1752] | A (a compound having 10 or more and less than 20 is denoted as A) | A (a compound having 10 or more and less than 20 is denoted as A) |
| 5.9 nM | 0.038 nM | CCO[C@@H]1C[C@H]2C(=O)NC3(CC(C)(C)C3)C(=O)N(C)[C@@H](C3CCCC3)C(=O)N(C)[C@H](C(=O)N(C)C)CC(=O)N(C)[C@@H](COC)C(=O)N[C@@H]([C@@H](C)CC)C(=O)N(C)CC(=O)N(C)[C@H]3C/C=C\CCN(C3=O)[C@@H](Cc3ccc(C(F)(F)F)cc3)C(=O)N(C)CC(=O)N[C@@H](CCc3ccc(C(F)(F)F)c(Cl)c3)C(=O)N2C1 [PP1753] | A (a compound having 10 or more and less than 20 is denoted as A) | A (a compound having 10 or more and less than 20 is denoted as A) |
| 3 nM | 0.064 nM | CCCOC[C@H]1C(=O)N[C@@H]([C@@H](C)CC)C(=O)N(C)CC(=O)N(C)[C@H]2C/C=C\CCN(C2=O)[C@@H](Cc2ccc(C(F)(F)F)cc2)C(=O)N(C)CC(=O)N[C@@H](CCc2ccc(C(F)(F)F)c(Cl)c2)C(=O)N2C[C@H](OCC)C[C@H]2C(=O)NC2(CC(C)(C)C2)C(=O)N(C)[C@@H](C2CCCC2)C(=O)N(C)[C@H](C(=O)N(C)C)CC(=O)N1C [PP1754] | A (a compound having 10 or more and less than 20 is denoted as A) | A (a compound having 10 or more and less than 20 is denoted as A) |

From US20240158446A1, “CYCLIC COMPOUND HAVING SELECTIVE INHIBITORY ACTION ON KRAS OVER HRAS AND NRAS” (CHUGAI SEIYAKU KABUSHIKI KAISHA, priority 2021, published 2024)
